In ChEMBL document CHEMBL4715821, “Discovery of 4-ethoxy-7H-pyrrolo[2,3-d]pyrimidin-2-amines as potent, selective and orally bioavailable LRRK2 inhibitors” (Bioorg Med Chem Lett, 2018):
pEC50: −log10 of the molar value.

Key:
[1] = target: Serine/threonine-protein kinase PAK 1 (Homo sapiens) (UniProt Q13153); assay: Inhibition of wild-type human partial length PAK1 (S149 to H545 residues) expressed in bacterial expression system assessed as residual activity at 1 uM by Kinomescan method relative to control
[2] = Dose normalized AUC (0 to t) in Han-Wistar rat brain at 10 mg/kg, po measured up to 7 hrs by UPLC-MS/MS analysis; type: ADME, organism-based; details: in vivo
[3] = target: Nuclear receptor subfamily 1 group I member 2 (Homo sapiens, UniProt O75469); assay: Inhibition of human PXR
[4] = target: Serine/threonine-protein kinase Sgk3 (Homo sapiens) (UniProt Q96BR1); assay: Inhibition of wild-type human partial length SGK3 (M119 to L496 residues) expressed in mammalian expression system assessed as residual activity at 1 uM by Kinomescan method relative to control
[5] = target: Serine/threonine-protein kinase 4 (Homo sapiens) (UniProt Q13043); assay: Inhibition of wild-type human full length MST1 (M1 to F487 residues) expressed in bacterial expression system assessed as residual activity at 1 uM by Kinomescan method relative to control
[6] = target: RAF proto-oncogene serine/threonine-protein kinase (Homo sapiens) (UniProt P04049); assay: Inhibition of wild-type human partial length RAF1 (I330 to T640 residues) expressed in bacterial expression system assessed as residual activity at 1 uM by Kinomescan method relative to control
[7] = target: Muscle, skeletal receptor tyrosine-protein kinase (Homo sapiens) (UniProt O15146); assay: Inhibition of wild-type human partial length MUSK (M553 to V869 residues) expressed in bacterial expression system assessed as residual activity at 1 uM by Kinomescan method relative to control
[8] = target: Mast/stem cell growth factor receptor Kit (Homo sapiens) (UniProt P10721); assay: Inhibition of c-kit (unknown origin) assessed as residual activity at 1 uM relative to control
[9] = target: Serine/threonine-protein kinase tousled-like 1 (Homo sapiens) (UniProt Q9UKI8); assay: Inhibition of wild-type human partial length TLK1 (K447 to A754 residues) expressed in bacterial expression system assessed as residual activity at 1 uM by Kinomescan method relative to control
[10] = target: CDK2/Cyclin A1 (Homo sapiens) (UniProt P24941+P78396); assay: Inhibition of CDK2/Cyclin A1 (unknown origin) assessed as residual activity at 1 uM by Kinomescan method relative to control; type: protein-complex assay
[11] = target: Ribosomal protein S6 kinase alpha-4 (Homo sapiens) (UniProt O75676); assay: Inhibition of wild-type human partial length N-terminal RPS6KA4 kinase domain 1 expressed in bacterial expression system assessed as residual activity at 1 uM by Kinomescan method relative to control
[12] = target: Dual specificity tyrosine-phosphorylation-regulated kinase 1A (Homo sapiens) (UniProt Q13627); assay: Inhibition of wild-type human partial length DYRK1A (H129 to S509 residues) expressed in mammalian expression system assessed as residual activity at 1 uM by Kinomescan method relative to control
[13] = target: Serine/threonine-protein kinase 3 (Homo sapiens) (UniProt Q13188); assay: Inhibition of wild-type human partial length MST2 (D17 to E318 residues) expressed in bacterial expression system assessed as residual activity at 1 uM by Kinomescan method relative to control
[14] = target: Ribosomal protein S6 kinase alpha-3 (Homo sapiens) (UniProt P51812); assay: Inhibition of wild-type human partial length N-terminal RSK2 kinase domain 1 (M1 to D394 residues) expressed in mammalian expression system assessed as residual activity at 1 uM by Kinomescan method relative to control
[15] = target: Serine/threonine-protein kinase WNK3 (Homo sapiens) (UniProt Q9BYP7); assay: Inhibition of wild-type human partial length WNK3 (M1 to D434 residues) expressed in mammalian expression system assessed as residual activity at 1 uM by Kinomescan method relative to control
[16] = target: Homeodomain-interacting protein kinase 4 (Homo sapiens) (UniProt Q8NE63); assay: Inhibition of wild-type human partial length HIPK4 (M1 to V384 residues) expressed in bacterial expression system assessed as residual activity at 1 uM by Kinomescan method relative to control
[17] = target: NT-3 growth factor receptor (Homo sapiens) (UniProt Q16288); assay: Inhibition of wild-type human partial length TRKC (Q531 to G825 residues) expressed in mammalian expression system assessed as residual activity at 1 uM by Kinomescan method relative to control
[18] = target: G protein-coupled receptor kinase 4 (Homo sapiens) (UniProt P32298); assay: Inhibition of wild type human full length GRK4 (M1 to C578 residues) expressed in bacterial expression system assessed as residual activity at 1 uM by Kinomescan method relative to control
[19] = Artificial membrane permeability by PAMPA method; type: ADME; details: read-out: permeability
[20] = target: Tyrosine-protein kinase Yes (Homo sapiens) (UniProt P07947); assay: Inhibition of wild-type human partial length YES (T257 to L543 residues) expressed in bacterial expression system assessed as residual activity at 1 uM by Kinomescan method relative to control
[21] = target: Tyrosine-protein kinase HCK (Homo sapiens) (UniProt P08631); assay: Inhibition of wild-type human full length HCK (M22 to P526 residues) expressed in bacterial expression system assessed as residual activity at 1 uM by Kinomescan method relative to control
[22] = target: Ephrin type-A receptor 8 (Homo sapiens) (UniProt P29322); assay: Inhibition of human wild type partial length EPHA8 (Q608 to C920 residues) expressed in bacterial expression system assessed as residual activity at 1 uM by Kinomescan method relative to control
[23] = target: Serine/threonine-protein kinase A-Raf (Homo sapiens) (UniProt P10398); assay: Inhibition of ARAF (unknown origin) assessed as residual activity assessed as residual activity at 1 uM relative to control
[24] = target: CDK6/cyclin D1 (Homo sapiens) (UniProt P24385+Q00534); assay: Inhibition of wild-type human full length CDK6 (M1 to A326 residues)/cyclin D1 expressed in mammalian expression system assessed as residual activity at 1 uM by Kinomescan method relative to control
[25] = target: Serine/threonine-protein kinase haspin (Homo sapiens) (UniProt Q8TF76); assay: Inhibition of wild-type human partial length HASPIN (I452 to K798 residues) expressed in mammalian expression system assessed as residual activity at 1 uM by Kinomescan method relative to control
[26] = In vivo inhibition of LRRK2 in C57BL6 mouse assessed as reduction in Ser935 phosphorylation in kidney at 45 mg/kg, po after 1 hr by Western blot analysis; type: functional; design: scale not given: the % may be the effect or the level left
[27] = target: Mitogen-activated protein kinase 1 (Homo sapiens) (UniProt P28482); assay: Inhibition of wild-type human full length ERK2 (M1 to S360 residues) expressed in bacterial expression system assessed as residual activity at 1 uM by Kinomescan method relative to control

Chain of Ribosomal protein S6 kinase alpha-4 (Homo sapiens) (O75676 whole entry, looked up, the tested form may be a part): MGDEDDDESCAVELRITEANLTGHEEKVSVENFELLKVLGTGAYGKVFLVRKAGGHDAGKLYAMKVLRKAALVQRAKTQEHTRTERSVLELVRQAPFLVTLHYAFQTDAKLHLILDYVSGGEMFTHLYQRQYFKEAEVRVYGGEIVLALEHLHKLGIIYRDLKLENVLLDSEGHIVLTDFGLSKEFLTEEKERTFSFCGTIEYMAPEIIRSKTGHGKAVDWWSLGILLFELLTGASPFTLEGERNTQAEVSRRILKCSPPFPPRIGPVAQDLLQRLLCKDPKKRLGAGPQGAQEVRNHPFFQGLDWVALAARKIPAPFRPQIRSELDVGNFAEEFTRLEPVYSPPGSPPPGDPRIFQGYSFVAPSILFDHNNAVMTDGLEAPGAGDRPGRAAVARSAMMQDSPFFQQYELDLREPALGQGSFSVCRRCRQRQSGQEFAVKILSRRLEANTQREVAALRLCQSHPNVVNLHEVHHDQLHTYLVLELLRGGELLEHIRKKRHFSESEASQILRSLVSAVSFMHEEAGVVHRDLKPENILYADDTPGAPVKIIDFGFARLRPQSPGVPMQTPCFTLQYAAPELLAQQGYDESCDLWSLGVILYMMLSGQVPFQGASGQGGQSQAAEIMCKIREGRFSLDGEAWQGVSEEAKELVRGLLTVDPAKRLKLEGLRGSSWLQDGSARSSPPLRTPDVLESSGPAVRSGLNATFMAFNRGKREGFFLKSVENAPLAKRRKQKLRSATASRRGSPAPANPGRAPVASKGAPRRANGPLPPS
Chain of Tyrosine-protein kinase HCK (Homo sapiens) (P08631 2-526 limits assumed): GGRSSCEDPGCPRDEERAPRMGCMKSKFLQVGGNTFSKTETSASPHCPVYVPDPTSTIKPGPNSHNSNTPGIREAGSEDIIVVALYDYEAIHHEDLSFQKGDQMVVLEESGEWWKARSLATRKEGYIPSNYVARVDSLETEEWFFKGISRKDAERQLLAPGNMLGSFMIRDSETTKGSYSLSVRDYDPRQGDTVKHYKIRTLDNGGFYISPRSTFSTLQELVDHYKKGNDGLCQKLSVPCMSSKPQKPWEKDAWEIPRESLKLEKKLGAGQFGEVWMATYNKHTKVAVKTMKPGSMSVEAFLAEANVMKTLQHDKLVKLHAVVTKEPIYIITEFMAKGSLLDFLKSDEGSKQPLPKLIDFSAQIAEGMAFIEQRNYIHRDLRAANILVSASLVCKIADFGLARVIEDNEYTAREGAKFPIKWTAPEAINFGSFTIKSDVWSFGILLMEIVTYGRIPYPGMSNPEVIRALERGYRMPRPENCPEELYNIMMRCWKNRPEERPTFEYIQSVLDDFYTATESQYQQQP
Chain of Serine/threonine-protein kinase tousled-like 1 (Homo sapiens) (Q9UKI8 whole entry, the tested form may be a part): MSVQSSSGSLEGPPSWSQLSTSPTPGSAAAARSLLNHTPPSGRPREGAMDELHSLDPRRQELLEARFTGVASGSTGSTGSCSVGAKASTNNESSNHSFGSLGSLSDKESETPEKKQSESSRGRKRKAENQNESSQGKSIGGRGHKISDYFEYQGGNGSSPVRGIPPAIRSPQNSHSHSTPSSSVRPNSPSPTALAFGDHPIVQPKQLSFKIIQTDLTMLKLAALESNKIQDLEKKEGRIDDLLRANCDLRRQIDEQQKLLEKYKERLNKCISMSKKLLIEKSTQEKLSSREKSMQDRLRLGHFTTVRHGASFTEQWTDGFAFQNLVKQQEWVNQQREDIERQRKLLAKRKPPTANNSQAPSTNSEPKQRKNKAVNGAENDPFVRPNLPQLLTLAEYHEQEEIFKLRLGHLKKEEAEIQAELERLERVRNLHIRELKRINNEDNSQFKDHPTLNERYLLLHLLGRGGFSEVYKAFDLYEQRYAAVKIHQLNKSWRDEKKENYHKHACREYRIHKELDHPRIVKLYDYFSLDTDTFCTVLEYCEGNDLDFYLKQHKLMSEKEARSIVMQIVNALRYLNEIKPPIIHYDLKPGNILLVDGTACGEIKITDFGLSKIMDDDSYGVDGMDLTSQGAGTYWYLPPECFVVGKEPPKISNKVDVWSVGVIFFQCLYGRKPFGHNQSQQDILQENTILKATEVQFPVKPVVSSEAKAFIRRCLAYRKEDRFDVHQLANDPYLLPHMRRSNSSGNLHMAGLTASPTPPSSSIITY
Chain of Tyrosine-protein kinase Yes (Homo sapiens) (P07947 2-543 limits assumed): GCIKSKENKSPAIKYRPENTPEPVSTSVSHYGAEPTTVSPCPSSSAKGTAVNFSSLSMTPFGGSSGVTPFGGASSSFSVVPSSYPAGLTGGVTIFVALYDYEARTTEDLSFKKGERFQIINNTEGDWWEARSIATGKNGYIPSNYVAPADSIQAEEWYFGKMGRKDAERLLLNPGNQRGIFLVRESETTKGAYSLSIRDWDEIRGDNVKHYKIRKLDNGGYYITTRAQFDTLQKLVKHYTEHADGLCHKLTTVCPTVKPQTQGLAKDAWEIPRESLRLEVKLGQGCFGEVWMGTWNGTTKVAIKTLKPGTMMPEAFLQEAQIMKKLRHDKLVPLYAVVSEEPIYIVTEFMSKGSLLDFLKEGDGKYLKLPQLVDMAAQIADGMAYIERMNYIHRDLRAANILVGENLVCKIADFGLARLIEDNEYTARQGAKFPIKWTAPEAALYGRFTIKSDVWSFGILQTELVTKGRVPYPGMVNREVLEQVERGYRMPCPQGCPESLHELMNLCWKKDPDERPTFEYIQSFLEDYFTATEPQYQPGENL
Chain of Mast/stem cell growth factor receptor Kit (Homo sapiens) (P10721 whole entry, the tested form may be a part): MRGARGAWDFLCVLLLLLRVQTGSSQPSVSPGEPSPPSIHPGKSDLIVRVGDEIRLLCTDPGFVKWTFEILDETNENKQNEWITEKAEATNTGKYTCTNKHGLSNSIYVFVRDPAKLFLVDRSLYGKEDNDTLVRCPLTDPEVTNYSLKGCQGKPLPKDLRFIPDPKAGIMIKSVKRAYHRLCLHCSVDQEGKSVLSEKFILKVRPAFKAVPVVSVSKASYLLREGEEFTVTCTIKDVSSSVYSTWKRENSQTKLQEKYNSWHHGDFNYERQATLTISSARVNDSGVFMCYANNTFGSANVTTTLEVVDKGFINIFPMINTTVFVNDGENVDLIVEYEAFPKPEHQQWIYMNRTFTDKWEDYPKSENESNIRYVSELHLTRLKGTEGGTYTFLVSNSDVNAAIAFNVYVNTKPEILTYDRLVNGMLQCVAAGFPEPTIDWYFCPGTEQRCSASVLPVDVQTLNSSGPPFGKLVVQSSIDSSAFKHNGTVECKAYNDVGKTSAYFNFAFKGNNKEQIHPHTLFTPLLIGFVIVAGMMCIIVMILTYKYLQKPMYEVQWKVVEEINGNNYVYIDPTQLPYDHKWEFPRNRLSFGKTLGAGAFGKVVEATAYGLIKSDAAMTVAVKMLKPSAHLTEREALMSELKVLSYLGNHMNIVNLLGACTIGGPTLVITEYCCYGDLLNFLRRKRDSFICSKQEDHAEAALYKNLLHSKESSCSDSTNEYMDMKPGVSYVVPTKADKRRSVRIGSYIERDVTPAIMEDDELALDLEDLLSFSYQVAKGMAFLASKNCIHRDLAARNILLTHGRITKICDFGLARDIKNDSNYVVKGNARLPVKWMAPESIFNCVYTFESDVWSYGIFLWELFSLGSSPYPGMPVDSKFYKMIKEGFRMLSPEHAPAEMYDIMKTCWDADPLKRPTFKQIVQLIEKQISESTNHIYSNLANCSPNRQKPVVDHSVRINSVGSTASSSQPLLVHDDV
Chain of Homeodomain-interacting protein kinase 4 (Homo sapiens) (Q8NE63 whole entry, the tested form may be a part): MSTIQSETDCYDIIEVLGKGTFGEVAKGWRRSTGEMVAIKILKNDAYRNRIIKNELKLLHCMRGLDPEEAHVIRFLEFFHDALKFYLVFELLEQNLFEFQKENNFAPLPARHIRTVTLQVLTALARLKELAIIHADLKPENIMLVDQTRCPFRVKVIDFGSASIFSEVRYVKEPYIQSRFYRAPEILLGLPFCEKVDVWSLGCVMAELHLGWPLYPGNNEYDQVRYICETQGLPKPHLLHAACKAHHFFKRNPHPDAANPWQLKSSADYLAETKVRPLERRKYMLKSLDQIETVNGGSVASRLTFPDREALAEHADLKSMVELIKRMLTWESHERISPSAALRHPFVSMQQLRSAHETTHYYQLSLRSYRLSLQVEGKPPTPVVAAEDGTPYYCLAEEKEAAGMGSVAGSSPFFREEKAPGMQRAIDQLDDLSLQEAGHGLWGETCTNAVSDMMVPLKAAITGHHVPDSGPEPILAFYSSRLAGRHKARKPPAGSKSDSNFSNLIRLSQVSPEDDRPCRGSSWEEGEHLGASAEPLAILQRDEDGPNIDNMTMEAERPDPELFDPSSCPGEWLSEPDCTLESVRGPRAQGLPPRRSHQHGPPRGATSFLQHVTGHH
Chain of RAF proto-oncogene serine/threonine-protein kinase (Homo sapiens) (P04049 whole entry, the tested form may be a part): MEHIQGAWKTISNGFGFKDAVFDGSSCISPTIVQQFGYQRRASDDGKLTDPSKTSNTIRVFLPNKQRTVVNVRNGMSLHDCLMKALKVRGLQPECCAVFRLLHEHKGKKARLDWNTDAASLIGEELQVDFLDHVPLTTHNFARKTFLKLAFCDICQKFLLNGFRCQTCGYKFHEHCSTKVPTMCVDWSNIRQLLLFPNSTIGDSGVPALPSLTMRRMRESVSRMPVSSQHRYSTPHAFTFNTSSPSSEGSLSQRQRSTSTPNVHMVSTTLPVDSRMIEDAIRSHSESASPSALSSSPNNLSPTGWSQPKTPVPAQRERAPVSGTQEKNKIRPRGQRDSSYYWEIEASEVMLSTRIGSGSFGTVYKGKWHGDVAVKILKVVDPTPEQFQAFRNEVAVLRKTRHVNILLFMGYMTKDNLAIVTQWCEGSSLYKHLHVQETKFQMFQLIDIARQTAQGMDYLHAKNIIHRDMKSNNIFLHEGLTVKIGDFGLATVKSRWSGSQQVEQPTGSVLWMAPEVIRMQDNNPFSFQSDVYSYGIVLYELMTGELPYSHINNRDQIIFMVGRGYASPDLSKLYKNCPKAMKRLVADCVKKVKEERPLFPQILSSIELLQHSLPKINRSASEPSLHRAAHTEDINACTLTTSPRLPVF

In the case of CCOc1nc(Nc2ccc(C(=O)N3CCOCC3)cc2OC)nc2[nH]ccc12, the Activity [1] was 95.3%, the AUCt/dose [2] was 252 ng·h/g/mg/kg and the pEC50 [3] was under 4.30. The Activity [4] was 93.7%, the Activity [5] was 99.8% and the Activity [6] was 97.5%. The Activity [7] was 72.9%, the Activity [8] was 98.6% and the Activity [9] was 98.1%. The Activity [10] was 74%, the Activity [11] was 109% and the Activity [12] was 72.2%. The Activity [13] was 99.3%, the Activity [14] was 65.1% and the Activity [15] was 71.8%. The Activity [16] was 101%, the Activity [17] was 97.7% and the Activity [18] was 84.6%. The Papp [19] was 48 ×10⁻⁶ cm/s, the Activity [20] was 94.4% and the Activity [21] was 87.2%. It also gave an Activity [22] of 94.4%, an Activity [23] of 95.9% and an Activity [24] of 98.8%. It also gave an Activity [25] of 89.5%, an Activity [26] of 80% and an Activity [27] of 93.5%.
